According to ChEMBL document CHEMBL5365500, “Development and Antibacterial Properties of 4-[4-(Anilinomethyl)-3-phenylpyrazol-1-yl]benzoic Acid Derivatives as Fatty Acid Biosynthesis Inhibitors” (J Med Chem, 2023):
In brackets after ≈: the same amount, converted by molar mass. Activity calls are given as the source filed them. The rule behind the calls is not given here.

Key:
Staphylococcus aureus [1] = assay: Antimicrobial activity against antibiotic-susceptible Staphylococcus aureus ATCC 25923 assessed as inhibition of biofilm formation on plastic coverslips at 0.5 times of MIC measured after 24 hrs by electron microscopy; format: functional, organism-based
Erythrocyte [2] = assay: Hemolytic activity in sheep red blood cells assessed as hemolysis at 16 to 32 ug/ml incubated for 30 mins relative to control; format: toxicity, cell-based, Ovis aries; conditions: 0.5 h, dose 16-32 µg/ml
[3] = Toxicity in Caenorhabditis elegans AU37 assessed as survival at 20 ug/ml measured for 4 days; conditions: at 20 µg/mL, time 4 day
Staphylococcus aureus [4] = assay: In vivo antimicrobial activity against Staphylococcus aureus UAMS-1 infected in Caenorhabditis elegans AU37 nematodes assessed as viability of nematodes incubated for 5 days by susceptibility test; format: functional; conditions: UAMS-1, 120 h, time 5 day
[5] = system: Panel NCI-60 (60 carcinoma cell lines); assay: Cytotoxicity against human panel NCI-60 (60 carcinoma cell lines)cells assessed as cell viability at 10 uM measured after 24 hrs by resazurin assay; format: functional, cell-based
Staphylococcus aureus [6] = assay: Antimicrobial activity against antibiotic-susceptible Staphylococcus aureus ATCC 25923 assessed as inhibition of biofilm formation by measuring prevention of turbidity after 24 hrs incubation by Real-time monitoring method; format: functional
Staphylococcus aureus [7] = assay: Antimicrobial activity against clinical isolate Staphylococcus aureus Smu81 assessed as inhibition of growth measured after 20 to 24 hrs incubation by CLSI method; format: functional; conditions: time 20-24 hrs
Staphylococcus aureus [8] = assay: In vivo antimicrobial activity against Staphylococcus aureus Newman infected in Caenorhabditis elegans AU37 nematodes assessed as viability of nematodes incubated for 5 days by susceptibility test; format: functional; conditions: 120 h, time 5 day
Staphylococcus aureus [9] = assay: Antimicrobial activity against Staphylococcus aureus ATCC 25923 assessed as inhibition of visible growth measured after 20 to 24 hrs incubation by CLSI method; format: functional; conditions: time 20-24 hrs
Staphylococcus aureus [10] = assay: Antimicrobial activity against antibiotic-resistant Staphylococcus aureus ATCC BAA-2312 assessed as inhibition of visible growth measured after 20 to 24 hrs incubation by CLSI method; format: functional; conditions: time 20-24 hrs
Staphylococcus aureus [11] = assay: Antimicrobial activity against clinical isolate Staphylococcus aureus Smu21 assessed as inhibition of growth measured after 20 to 24 hrs incubation by CLSI method; format: functional; conditions: time 20-24 hrs
Cell membrane [12] = assay: Induction of membrane permeability in Staphylococcus aureus ATCC 700699 assessed as increase in fluorescence at 8 times of MIC incubated for 15 mins measured for 1 hr by propidium iodide/real time fluorescence based flow cytometry; format: subcellular
Cell membrane [13] = assay: Induction of membrane permeability in Staphylococcus aureus ATCC 700699 assessed as increase in fluorescence intensity at 1 times of MIC incubated for 15 mins measured for 1 hr by propidium iodide/real time fluorescence based flow cytometry Rvb = 3.5); conditions: time 75.0 min
Staphylococcus aureus [14] = assay: In vivo antimicrobial activity against Staphylococcus aureus USA300 infected in Caenorhabditis elegans AU37 nematodes assessed as viability of nematodes incubated for 5 days by susceptibility test; format: functional; conditions: USA300, 120 h, time 5 day
Cell membrane [15] = assay: Induction of membrane permeability in Staphylococcus aureus ATCC 700699 assessed as increase in fluorescence intensity at 2 times of MIC incubated for 15 mins measured for 1 hr by propidium iodide/real time fluorescence based flow cytometry Rvb = 3.5); format: subcellular; conditions: time 75.0 min
Staphylococcus aureus [16] = assay: Antimicrobial activity against methicilline-resistant Staphylococcus aureus ATCC 700699 persisters assessed as reduction in initial persister concentration at 8 times of MIC concentration measured for 8 hrs by Persisters time course assay; format: functional
Bacillus subtilis = assay: Antimicrobial activity against antibiotic-resistant Bacillus subtilis ATCC 6623 assessed as inhibition of visible growth measured after 20 to 24 hrs incubation by CLSI method; format: functional; conditions: time 20-24 hrs
Staphylococcus aureus [17] = assay: Antimicrobial activity against Staphylococcus aureus ATCC 25923 assessed as inhibition of biofilm formation by measuring prevention of turbidity after 24 hrs incubation by Real-time monitoring method; format: functional
Cell membrane [18] = assay: Induction of membrane permeability in Staphylococcus aureus ATCC 700699 assessed as increase in fluorescence intensity at 4 times of MIC incubated for 15 mins measured for 1 hr by propidium iodide/real time fluorescence based flow cytometry Rvb = 3.5); conditions: time 75.0 min
Staphylococcus aureus [19] = assay: Antimicrobial activity against clinical isolate Staphylococcus aureus Smu109 assessed as inhibition of growth measured after 20 to 24 hrs incubation by CLSI method; format: functional; conditions: time 20-24 hrs
Cell membrane [20] = assay: Induction of membrane damage in Staphylococcus aureus ATCC 700699 assessed as cell surface damage at 1 to 4 times of MIC measured after 30 mins by Scanning electron microscopy; format: subcellular
Staphylococcus aureus [21] = assay: Antimicrobial activity against clinical isolate Staphylococcus aureus Smu57 assessed as inhibition of growth measured after 20 to 24 hrs incubation by CLSI method; format: functional; conditions: time 20-24 hrs
Enterococcus faecalis [22] = assay: Antimicrobial activity against Enterococcus faecalis ATCC 29212 assessed as inhibition of biofilm formation by measuring prevention of turbidity after 24 hrs incubation by Real-time monitoring method; format: functional
Cell membrane [23] = assay: Induction of membrane permeability in Staphylococcus aureus ATCC 700699 assessed as increase in fluorescence at 0.5 to 2 times of MIC incubated for 15 mins measured for 1 hr by propidium iodide/real time fluorescence based flow cytometry; format: subcellular; conditions: time 75.0 min
Staphylococcus aureus [24] = assay: Antimicrobial activity against antibiotic-resistant Staphylococcus aureus ATCC 33592 assessed as inhibition of visible growth measured after 20 to 24 hrs incubation by CLSI method; format: functional; conditions: time 20-24 hrs
Staphylococcus aureus [25] = assay: Antimicrobial activity against Staphylococcus aureus UAB159 assessed as inhibition of growth measured after 20 to 24 hrs incubation by CLSI method; format: functional; conditions: time 20-24 hrs
Erythrocyte [26] = assay: Hemolytic activity in sheep red blood cells assessed as hemolysis at 64 ug/ml incubated for 30 mins relative to control; format: toxicity, cell-based, Ovis aries; conditions: 0.5 h, at 64 µg/mL
Staphylococcus aureus [27] = assay: Antimicrobial activity against methicilline-resistant Staphylococcus aureus ATCC 700699 persisters assessed as reduction in initial persister concentration at 16 times of MIC concentration measured for 6 hrs by Persisters time course assay; format: functional, organism-based
Staphylococcus aureus [28] = assay: Antimicrobial activity against antibiotic-resistant Staphylococcus aureus ATCC 33591 assessed as inhibition of visible growth measured after 20 to 24 hrs incubation by CLSI method; format: functional; conditions: time 20-24 hrs
Enterococcus faecium = assay: Antimicrobial activity against Enterococcus faecium […] assessed as inhibition of biofilm formation after 24 hrs incubation by Real-time monitoring method; format: functional
Staphylococcus aureus [29] = assay: Antimicrobial activity against methicilline-resistant Staphylococcus aureus ATCC 700699 persisters assessed as reduction in initial persister concentration at 2 times of MIC concentration measured for 2 to 8 hrs by Persisters time course assay; format: functional, organism-based; conditions: time 2-8 hrs
Staphylococcus aureus [30] = assay: Antimicrobial activity against clinical isolate Staphylococcus aureus Smu9 assessed as inhibition of growth measured after 20 to 24 hrs incubation by CLSI method; format: functional; conditions: time 20-24 hrs
[31] = Toxicity in Caenorhabditis elegans AU37 assessed as survival at 4 ug/ml measured for 4 days; conditions: 96 h, dose 4 µg/ml, time 4 day
HEK293 = assay: Cytotoxicity against human HEK293 cells assessed as cell viability measured after 24 hrs by resazurin assay; format: toxicity, cell-based
Enterococcus faecalis [32] = assay: Antimicrobial activity against antibiotic-susceptible Enterococcus faecalis ATCC 29212 assessed as inhibition of biofilm formation by measuring prevention of turbidity after 24 hrs incubation by Real-time monitoring method; format: functional
Staphylococcus aureus [33] = assay: Antimicrobial activity against methicilline-resistant Staphylococcus aureus ATCC 700699 persisters assessed as bacterial killing at 32 time of MIC concentration measured for every 2 hrs upto 8 hrs by Persisters time course assay; format: functional, organism-based
Staphylococcus aureus [34] = assay: Antimicrobial activity against methicillin-resistant Staphylococcus aureus USA300 infected in liquid-based Caenorhabditis elegans co-infection model assessed as rescue of worms by measuring viability at 1 ug/ml incubated for 5 days (reference value: 20%); format: functional; conditions: dose 1 µg/ml; time 5 day
Cell membrane [35] = assay: Induction of membrane permeability in Staphylococcus aureus ATCC 700699 assessed as increase in fluorescence at 4 times of MIC incubated for 15 mins measured for 1 hr by propidium iodide/real time fluorescence based flow cytometry; format: subcellular; conditions: time 75.0 min
Staphylococcus aureus [36] = assay: Bactericidal activity in antibiotic-resistant Staphylococcus aureus ATCC 700699 assessed as reduction in viable cell count at 4 times of MIC measured upto 24 hrs by time kill assay; format: functional, organism-based
Staphylococcus aureus [37] = assay: Antimicrobial activity against methicillin-resistant Staphylococcus aureus USA300 infected in liquid-based Caenorhabditis elegans co-infection model assessed as rescue of worms by measuring viability at 2 ug/ml incubated for 5 days (reference value: 20%); format: functional; conditions: dose 2 µg/ml; time 5 day
Staphylococcus aureus [38] = assay: Antimicrobial activity against methicillin-resistant Staphylococcus aureus USA300 infected in liquid-based Caenorhabditis elegans co-infection model assessed as rescue of worms by measuring viability at 4 ug/ml incubated for 5 days (reference value: 20%); format: functional; conditions: dose 4 µg/ml; time 5 day

| Structure (SMILES) | Activity (Erythrocyte [2]) | survival at 96 h, 20 ug/ml [3] [%] | MIC (Staphylococcus aureus [4]) [µg/mL] | Activity [5] | MIC (Staphylococcus aureus [7]) [µg/mL] | MIC (Staphylococcus aureus [8]) [µg/mL] | MIC (Staphylococcus aureus [10]) [µg/mL] | MIC (Staphylococcus aureus [11]) [µg/mL] | Activity (Cell membrane [12]) | Activity (Cell membrane [13]) [%] | MIC (Staphylococcus aureus [14]) [µg/mL] | Activity (Cell membrane [15]) [%] | MIC (Bacillus subtilis) [µg/mL] | MIC (Staphylococcus aureus [17]) [µg/mL] | Activity (Cell membrane [18]) [%] | MIC (Enterococcus faecalis [22]) [µg/mL] | Activity (Cell membrane [23]) | MIC (Staphylococcus aureus [24]) [µg/mL] | MIC (Staphylococcus aureus [25]) [µg/mL] | Activity (Erythrocyte [26]) [%] | other results |
| --- | --- | --- | --- | --- | --- | --- | --- | --- | --- | --- | --- | --- | --- | --- | --- | --- | --- | --- | --- | --- | --- |
| O=C(O)c1ccc(-n2cc(CNc3cc(Br)cc(C(F)(F)F)c3)c(-c3ccc(F)c(F)c3)n2)cc1 | Non-Toxic | > 80 | 1 (≈ 1.81 µM) | inactive | 4 (≈ 7.24 µM) | 1 (≈ 1.81 µM) | 1 (≈ 1.81 µM) | 2 (≈ 3.62 µM) | inactive | 18.5 | 1 (≈ 1.81 µM) | 32.8 | 0.5 (≈ 0.905 µM) | 2 (≈ 3.62 µM) | 96.7 | 4 (≈ 7.24 µM) | inactive | 1 (≈ 1.81 µM) | 4 (≈ 7.24 µM) | < 10 | Activity (Staphylococcus aureus [1]): Active; MBBC (Staphylococcus aureus [6]): 8 µg/mL; MIC (Staphylococcus aureus [9]): 1 µg/mL (≈ 1.81 µM); log(activity) (Staphylococcus aureus [16]): 6; MIC (Staphylococcus aureus [19]): 2 µg/mL (≈ 3.62 µM); Activity (Cell membrane [20]): Active; MIC (Staphylococcus aureus [21]): 2 µg/mL (≈ 3.62 µM); Activity (Staphylococcus aureus [27]): Active; MIC (Staphylococcus aureus [28]): 1 µg/mL (≈ 1.81 µM); MBIC (Enterococcus faecium): 4 µg/mL; Activity (Staphylococcus aureus [29]): inactive; MIC (Staphylococcus aureus [30]): 2 µg/mL (≈ 3.62 µM); Activity [31]: Non-Toxic; IC50 (HEK293): 27 µg/mL (≈ 48.9 µM); MBBC (Enterococcus faecalis [32]): 8 µg/mL |
| O=C(O)c1ccc(-n2cc(CNc3ccc(Cl)c(C(F)(F)F)c3)c(-c3cccc(F)c3)n2)cc1 | Non-Toxic | > 80 | 1 (≈ 2.04 µM) | inactive | 4 (≈ 8.17 µM) | 1 (≈ 2.04 µM) | 1 (≈ 2.04 µM) | 4 (≈ 8.17 µM) | inactive | 22.3 | 2 (≈ 4.08 µM) | 32.3 | 0.5 (≈ 1.02 µM) | 4 (≈ 8.17 µM) | 95.6 | 8 (≈ 16.3 µM) | inactive | 1 (≈ 2.04 µM) | 4 (≈ 8.17 µM) | < 10 | Activity (Staphylococcus aureus [33]): Active; Activity (Staphylococcus aureus [34]): 90%; Activity (Cell membrane [35]): Active; Activity (Staphylococcus aureus [36]): Active; Activity (Staphylococcus aureus [37]): 90%; Activity (Staphylococcus aureus [38]): 90%; MIC (Staphylococcus aureus [28]): 1 µg/mL (≈ 2.04 µM); MBIC (Enterococcus faecium): 8 µg/mL; MIC (Staphylococcus aureus [30]): 2 µg/mL (≈ 4.08 µM); Activity [31]: Non-Toxic; MBBC (Enterococcus faecalis [32]): 16 µg/mL |
